Test systems include HCT-116; UACC-62; HOP-92; HL-60; HOP-62; SNB-19; RXF 393; NCI-H522; SK-MEL-2; HCT-15; 786-0; SNB-75; SK-MEL-5; CAKI-1; COLO 205; NCI-H460; OVCAR-8; RPMI-8226.
Assay in all cases: NCI anticancer screen, dose series, 48 h

Results on twelve molecules are retold here after ChEMBL document CHEMBL1201862, “PubChem BioAssay data set” (2004).

Molecules are shown by their SMILES.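 Interpolation was linear, between the two tested concentrations surrounding the appropriate level; five concentrations were tested over 48 hours in 96-well plates. At the GI50, growth is halved.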 The source made the active and inactive calls. No stated cut-off is given here; in the data, active = GI50 up to about 1.1 µM and inactive = higher.

On to `N=C(N)NS(=O)(=O)c1ccc(Nc2c3ccccc3nc3c(C(=O)N4CCN(CCO)CC4)cccc23)cc1`, for which the GI50 with HCT-116, with UACC-62, in the experiment with HOP-92, with HL-60, in the experiment on HOP-62 and in the experiment on SNB-19 was > 100 µM (inactive) throughout. Also, the GI50 was > 100 µM (inactive) in the experiment with RXF 393; > 100 µM (inactive) in the experiment with NCI-H522; > 100 µM (inactive) in the experiment on SK-MEL-2; above 100 µM in the experiment with HCT-15; > 100 µM (inactive) in the experiment on 786-0; > 100 µM (inactive) with SNB-75. For the same molecule, the GI50 in the experiment on SK-MEL-5, with CAKI-1, in the experiment on COLO 205, in the experiment with NCI-H460 and in the experiment on OVCAR-8 was > 100 µM (inactive) in each case.

With `COC(=O)CC(C(C(=O)OCc1ccccc1)C(C)O)N1C(=O)OC(c2ccccc2)C1c1ccccc1` (stereo not given), the GI50 was > 100 µM (inactive) in the experiment with HCT-116; 52 µM (inactive) in the experiment with UACC-62; 62.7 µM (inactive) in the experiment with RPMI-8226; > 100 µM (inactive) with HL-60; > 100 µM (inactive) in the experiment on HOP-62; > 100 µM (inactive) with SNB-19. Also, the GI50 in the experiment on RXF 393 was > 100 µM (inactive); in the experiment with SK-MEL-2, > 100 µM (inactive); in the experiment with HCT-15, above 100 µM; with 786-0 it was > 100 µM (inactive); in the experiment with SK-MEL-5, 74 µM (inactive); in the experiment on COLO 205, > 100 µM (inactive). For the same molecule, the GI50 in the experiment with NCI-H460 and in the experiment with OVCAR-8 was > 100 µM (inactive) each time.

With `COc1ccc(NC(=O)CC(=O)N/N=C/c2ccc(N(CCC#N)S(=O)(=O)c3ccccc3)cc2)cc1`, the GI50 in the experiment with HCT-116, in the experiment with UACC-62, with RPMI-8226, in the experiment on HOP-92, in the experiment with HL-60 and with HOP-62 was > 100 µM (inactive) in each case. For the same molecule, the GI50 is > 100 µM (inactive) in the experiment on SNB-19; > 100 µM (inactive) in the experiment on NCI-H522; > 100 µM (inactive) with SK-MEL-2; above 100 µM in the experiment with HCT-15; > 100 µM (inactive) in the experiment with 786-0; > 10 µM (inactive) with SNB-75. Further, the GI50 in the experiment with SK-MEL-5, with CAKI-1, in the experiment on COLO 205, in the experiment with NCI-H460 and in the experiment with OVCAR-8 was > 100 µM (inactive) each time.

Regarding `O=C(Nc1cc(Cl)c(Cl)cc1Cl)C(=O)C(C(=O)c1ccc2ccccc2c1)C1OC(=O)c2ccccc21` (stereo not given), the GI50 in the experiment with HCT-116 is 11 µM (inactive); in the experiment on UACC-62, 12.1 µM (inactive); in the experiment with RPMI-8226, 11.9 µM (inactive); in the experiment with HOP-92, 1.96 µM (inactive); with HL-60, 13.2 µM (inactive); in the experiment on HOP-62, 16.1 µM (inactive). The GI50 is 11.6 µM (inactive) in the experiment on SNB-19; 3.95 µM (inactive) with RXF 393; 12 µM (inactive) in the experiment with NCI-H522; 14.4 µM (inactive) in the experiment with SK-MEL-2; 17.3 µM in the experiment with HCT-15; 8.11 µM (inactive) in the experiment on 786-0. Besides, the GI50 in the experiment on SK-MEL-5 is 11.8 µM (inactive); in the experiment on CAKI-1 it was > 10 µM (inactive); in the experiment with COLO 205, 17 µM (inactive); in the experiment with NCI-H460, 10.4 µM (inactive); with OVCAR-8, 8 µM (inactive).

Consider `COc1ccccc1NC(=O)c1nc2ccc([N+](=O)[O-])cc2nc1C`, for which the GI50 is > 100 µM (inactive) with HCT-116; > 100 µM (inactive) in the experiment on UACC-62; > 100 µM (inactive) in the experiment with RPMI-8226; 51.8 µM (inactive) in the experiment on HOP-92; 97.1 µM (inactive) in the experiment on HOP-62; > 100 µM (inactive) with SNB-19. The GI50 was 57.8 µM (inactive) in the experiment on NCI-H522; > 100 µM (inactive) in the experiment on SK-MEL-2; above 100 µM with HCT-15; > 100 µM (inactive) in the experiment with 786-0; 65.3 µM (inactive) with SNB-75; > 100 µM (inactive) in the experiment with SK-MEL-5. Further, the GI50 with CAKI-1, with COLO 205, with NCI-H460 and in the experiment on OVCAR-8 was > 100 µM (inactive) in each case.

As to `O=C1CNNC(Cn2nc(-c3ccccc3)c3ccccc3c2=O)=N1`, the GI50 in the experiment on HCT-116, in the experiment on UACC-62, in the experiment with RPMI-8226, with HOP-92, in the experiment with HL-60 and in the experiment with HOP-62 was > 100 µM (inactive) each time. In addition, the GI50 with SNB-19 is > 100 µM (inactive); in the experiment with NCI-H522, > 100 µM (inactive); in the experiment with SK-MEL-2, > 100 µM (inactive); in the experiment with HCT-15, above 100 µM; in the experiment on 786-0, > 100 µM (inactive); in the experiment with SNB-75 it was 83 µM (inactive). Also, the GI50 in the experiment with SK-MEL-5, with COLO 205, in the experiment with NCI-H460 and in the experiment on OVCAR-8 was > 100 µM (inactive) each time.

On to `CCCCNC(=O)C1C2CCC(O2)C1C(=O)O` (stereo not given), for which the GI50 in the experiment on HCT-116 was 12 µM (inactive); in the experiment with UACC-62, 17.5 µM (inactive); in the experiment with RPMI-8226 it was 20.9 µM (inactive); in the experiment with HOP-92, 12 µM (inactive); in the experiment with HOP-62, 34.7 µM (inactive); in the experiment with SNB-19, 23.7 µM (inactive). In addition, the GI50 was 2.07 µM (inactive) in the experiment on RXF 393; 18.9 µM (inactive) in the experiment with NCI-H522; 27.5 µM (inactive) in the experiment on SK-MEL-2; 23.7 µM with HCT-15; 16.1 µM (inactive) in the experiment with 786-0; 16.8 µM (inactive) in the experiment on SNB-75. For the same molecule, the GI50 was 20.2 µM (inactive) in the experiment on SK-MEL-5, 16.6 µM (inactive) in the experiment with COLO 205, 41 µM (inactive) with NCI-H460 and 20.5 µM (inactive) in the experiment with OVCAR-8.

In the case of `COC(=O)CC(=O)C[P+](c1ccccc1)(c1ccccc1)c1ccccc1`, the GI50 with HCT-116 is 60.7 µM (inactive); in the experiment on UACC-62, 178 µM (inactive); in the experiment on RPMI-8226 it was 63.5 µM (inactive); with HOP-92 it was 102 µM (inactive); with HL-60, 48.9 µM (inactive); in the experiment with HOP-62 it was > 218 µM (inactive). Further, the GI50 is > 218 µM (inactive) in the experiment on SNB-19; > 218 µM (inactive) with RXF 393; 37.7 µM (inactive) in the experiment on NCI-H522; > 218 µM (inactive) in the experiment with SK-MEL-2; 56.5 µM in the experiment on HCT-15; > 218 µM (inactive) in the experiment on 786-0. In addition, the GI50 with SK-MEL-5 was 158 µM (inactive); with CAKI-1, > 218 µM (inactive); in the experiment with COLO 205, 168 µM (inactive); with NCI-H460, 148 µM (inactive); in the experiment with OVCAR-8 it was 150 µM (inactive).

As to `CCCCCCCCCCC/C(=N/O)c1ccc(O)c2ncccc12`, the GI50 in the experiment on HCT-116 is 6.64 µM (inactive); in the experiment on HOP-92 it was 0.275 µM (active); in the experiment with HL-60 it was 0.19 µM (active); with HOP-62 it was 4.26 µM (inactive); with SNB-19, 5.74 µM (inactive); in the experiment on RXF 393, 7.67 µM (inactive). Besides, the GI50 in the experiment on NCI-H522 was 2.31 µM (inactive); in the experiment with SK-MEL-2, 2.4 µM (inactive); with 786-0, 10.6 µM (inactive); in the experiment with SNB-75, 2.52 µM (inactive); with SK-MEL-5 it was 1.85 µM (inactive); in the experiment with CAKI-1, 3.16 µM (inactive). In addition, the values for the GI50 in the experiment with COLO 205, in the experiment with NCI-H460 and in the experiment on OVCAR-8 were 45.9 µM (inactive), 3.65 µM (inactive) and 4.29 µM (inactive), respectively.

For the molecule `O=C1c2ccccc2C2(O)Oc3cccc(O)c3C12O` (stereo not given), the GI50 was > 100 µM (inactive) in the experiment on HCT-116; 62.5 µM (inactive) in the experiment with UACC-62; > 100 µM (inactive) with RPMI-8226; > 100 µM (inactive) with HOP-92; > 100 µM (inactive) with HL-60; > 100 µM (inactive) with HOP-62. Also, the GI50 was > 100 µM (inactive) in the experiment on SNB-19; > 100 µM (inactive) with NCI-H522; > 100 µM (inactive) in the experiment on SK-MEL-2; above 100 µM in the experiment with HCT-15; > 100 µM (inactive) with 786-0; > 100 µM (inactive) in the experiment on SNB-75. For the same molecule, the GI50 in the experiment with SK-MEL-5, with CAKI-1, in the experiment with COLO 205, in the experiment with NCI-H460 and in the experiment on OVCAR-8 was > 100 µM (inactive) throughout.

On to `COc1ccc2nc3cc(Cl)ccc3c(NCCC(=O)OCC(O)C(O)C(O[C@H](C)C(=O)NC(C)C(=O)NC(CCC(N)=O)C(=O)OCc3ccccc3)C(C=O)NC(C)=O)c2c1` (stereo not given in full), for which the GI50 was 18 µM (inactive) with HCT-116; 17.9 µM (inactive) in the experiment on UACC-62; 17.8 µM (inactive) with HOP-92; 25.1 µM (inactive) in the experiment on HL-60; 16.1 µM (inactive) in the experiment on HOP-62; 24.7 µM (inactive) in the experiment on SNB-19. In addition, the GI50 was 14.5 µM (inactive) in the experiment with NCI-H522; 21.1 µM (inactive) with SK-MEL-2; 20.7 µM with HCT-15; 16.9 µM (inactive) in the experiment on 786-0; 16.1 µM (inactive) with SNB-75; 16.6 µM (inactive) in the experiment on SK-MEL-5. Besides, the GI50 in the experiment with CAKI-1 is 20.2 µM (inactive); with COLO 205 it was 18.3 µM (inactive); with NCI-H460, 16.2 µM (inactive); with OVCAR-8, 16 µM (inactive).

In the case of `O=C(Cc1ccccc1)Oc1ccc2c(-c3ccccc3)c(C(=O)Nc3ccc(Cl)cc3)c(=O)oc2c1`, the GI50 with HCT-116, in the experiment on UACC-62, in the experiment with RPMI-8226, in the experiment with HOP-92, with HL-60 and in the experiment on HOP-62 was > 100 µM (inactive) each time. Also, the GI50 in the experiment on SNB-19 is > 100 µM (inactive); in the experiment on RXF 393 it was > 100 µM (inactive); in the experiment with NCI-H522, > 100 µM (inactive); in the experiment with HCT-15, above 100 µM; in the experiment on 786-0, > 100 µM (inactive); in the experiment with SNB-75 it was > 100 µM (inactive). In addition, the GI50 in the experiment with SK-MEL-5, with CAKI-1, in the experiment on COLO 205, in the experiment on NCI-H460 and in the experiment on OVCAR-8 was > 100 µM (inactive) throughout.
